{
  "source": "patent US20190255146A1",
  "about": "“POLYPEPTIDES FOR IMPROVED RESPONSE TO ANTI-CANCER THERAPY” (MUSC FOUNDATION FOR RESEARCH DEVELOPMENT, priority 2016, published 2019)",
  "key": {"UM-SCC-22A cells [1]": {"system": "UM-SCC-22A cells", "assay": "Mitophagy in UM-SCC-22A cells (live cell imaging, colocalization of LTG and MTR)", "type": "cell-based", "description": "Laser scanning confocal microscopy. For live cell imaging, cultured cells were incubated with 500 nM of mitotracker […] and 500 nM lysotracker green in DMSO for 30 min at 37° C. […] An Olympus FV10i confocal microscope was used for imaging. 543- and 488-nm channels were used for visualizing red or green fluorescence, respectively, with pinholes set to 1.0 Airy units. At least three random fields were imaged for each sample ([…] et al, 2012)."}, "UM-SCC-47 cells [2]": {"system": "UM-SCC-47 cells", "assay": "Mitophagy in UM-SCC-47 cells (Sea Horse oxygen consumption rate, TEM)", "type": "cell-based", "description": "Measurement of cellular respiration using Seahorse XF analyzer. Cells were plated in a Seahorse Biosciences 96-well plate and allowed to adhere for 20 hours. They were then treated with 20 uM C18-pyr-cer or equivalent amount of vehicle (EtOH) for two hours, then oxygen consumption rate was measured using a Seahorse XF96 (Seahorse Biosciences) as described by the manufacturer (Sentelle et al, 2012).\nUltra-structure analysis using transmission electron microscopy."}, "Drp1-E2F5 complex [3]": {"system": "Drp1-E2F5 complex", "assay": "Drp1-E2F5 association in UM-SCC-47 cells (PLA, co-immunoprecipitation)", "type": "cell-based", "description": "(§1) Proximity ligation assay. Proximity ligation assays were performed using Duolink in situ red kit (Sigma) per manufacturer's instructions, then analyzed as described (Panneer-Selvam et al, 2015).\nCo-immunoprecipitation. Cells were lysed in 500 ul Pierce™ IP lysis/wash buffer (ThermoFisher) with protease inhibitor cocktail (Sigma) on ice for 15 minutes. 350 μg of protein were used with SureBeads™ Protein A Magnetic Beads (BioRad) per manufacturer's instructions, using 10 μg antibody or corresponding normal IgG control (SCBT)."}, "Drp1 [4]": {"system": "Drp1", "assay": "Drp1 oligomerization by Western blotting without reducing agents", "type": "cell-based", "conditions": "HPV(+) UM-SCC47 cells", "description": "FIGS. 7A-F. E2F5/Drp1 complex enhances HPV-E7/ceramide-dependent lethal mitophagy. (A) UM-SCC47 cells were treated with cisplatin or C18-pyr-cer and Western blotting was performed with cell lysates in the absence of reducing agents in the lysing buffer to detect monomeric and dimeric Drp1 protein abundance compared to vehicle-treated controls. Actin was used as a loading control. (B-C) Cell death was assessed by trypan blue exclusion assay in UM-SCC47 cells expressing dominant-negative Drp1 mutant (K38A-DRP1) and treated with C18-pyr-cer (B) or cisplatin (C) compared to vector-transfected controls. […] (D-E) Association between E2F5 and Drp1 in response to ceramide stress (C18-pyr-cer) was measured in UM-SCC-47 cells using PLA (D) or immunoprecipitation followed by Western blotting (E) with anti-Drp1 or anti-E2F5 antibodies. IgG was used as a control. […] PLA signals were quantified as described by the manufacturer using the PLA quantification software. […] Effects of siRNA-mediated HPV-E6/E7 knockdown on pRB, HPV-E7 and p53 protein abundance were also confirmed by Western blotting compared to Scr-siRNA-transfected controls in the absence/presence of C18-pyr-cer (right panel). Total RB was used a loading control (Rb band, upper panel).\nImmunoblotting. Cells were lysed in RIPA buffer plus protease inhibitor cocktail on ice for 15 minutes then centrifuged. […]"}, "Drp1-MFF association": {"system": "Drp1-MFF association", "assay": "Drp1-MFF association by PLA in UM-SCC47 cells", "type": "cell-based", "description": "(§2) FIGS. 9A-D. E2F5 enhances Drp1 translocation to mitochondria and association with MFF to induce HPV-E7/ceramide-dependent mitophagy. (A) Effects of stable knockdown of E2F5 using shRNA on DRP1-MFF association with/without C18-pyr-cer were measured by PLA using anti-DRP1 and anti-MFF antibodies compared to Scr-shRNA-transfected UM-SCC-47 controls. […] (B) HPV(−) UM-SCC1A cells transiently transfected with exogenous E2F5 or empty vector (vec) were used to measure the association between Drp1 and MFF in the absence/presence of ceramide stress by PLA using anti-DRP1 and anti-MFF antibodies. […] (C) Effects of shRNA-mediated E2F5 knockdown on Drp1 localization to mitochondria in the absence/presence of C18-pyr-cer were assessed in whole cell lysates (UM-SCC-47) versus mitochondria-enriched fractions using Western blotting. (D) Effects of transient reconstitution of E2F5^WT or E2F5^Δ84-177 proteins in UM-SCC47 cells, which were stably transfected with E2F5-shRNA, on Drp1 abundance, were measured by Western blotting using anti-Drp1 antibody, in whole cell lysates versus mitochondria-enriched fractions.\nas §1"}, "Drp1 [5]": {"system": "Drp1", "assay": "Drp1 recruitment to mitochondria in HPV(+) UM-SCC-47 cells (Western blotting of mitochondria-enriched fractions)", "type": "cell-based", "description": "as §2\n(§3) Immunoblotting. Cells were lysed in RIPA buffer plus protease inhibitor cocktail on ice for 15 minutes then centrifuged. 30ug of protein from the supernatant were run on Criterion™ TGX™ Precast Gels (Bio-Rad).\nCell fractionation. […]"}, "UM-SCC-47 cells [6]": {"system": "UM-SCC-47 cells", "assay": "Growth inhibition in culture, IC50 determination by MTT assay", "type": "cell-based", "description": "(§4) IC50 determination by MTT assay. Cells were plated in 96-well plates and allowed to adhere for 20 h, then treated with the indicated concentrations of drug. After 48 h treatment, the MTT assay (ATCC) was performed as described previously (Sentelle et al, 2012)."}, "UM-SCC-22A cells [7]": {"system": "UM-SCC-22A cells", "assay": "Growth inhibition in culture, IC50 determination by MTT assay", "type": "cell-based", "conditions": "UM-SCC-22A (HPV−) cells, 48 h; read-out: IC50 (concentration that inhibited growth by 50%)", "description": "as §4"}, "UM-SCC-22A cells [8]": {"system": "UM-SCC-22A cells", "description": "Trypan blue exclusion assay. Cells were seeded in 6-well plates, and allowed to adhere for 20 h. After treatments (for 24 h), medium containing dead cells was pelleted with trypsinized cells, then re-suspended in 1× PBS then counted in a hemocytometer after addition of trypan blue dye (Sigma-Aldrich) at a 1:10 dilution."}, "[9]": {"system": "UM-SCC-22A xenograft-derived tumors", "conditions": "peptide plus cisplatin versus Scr-pept with/without cisplatin", "text": "Data are means±SD from three independent experiments. *p<0.05 as determined by Student's t test. […] Data are means±SD from three independent experiments. *p<0.05 as determined by Student's t test. […] Data are means±SD from three independent experiments. *p<0.05 as determined by Student's t test.\n(§5) In vivo studies. Severe combined immunodeficient (SCID) mice were purchased from Jackson Laboratories. Age- and sex-matched mice were used. All animal protocols were approved by the Institutional Animal Care and Use Committee at the Medical University of South Carolina. UM-SCC22A or UM-SCC47 cells (75,000) were implanted into the flanks of SCID mice (n=5-8 mice). When the tumors were palpable, the mice were treated every three days with 3.5 mg/kg cisplatin, 20 mg/kg C18-pyr-cer, or corresponding amount of vehicle control and/or 3.76 μg E2F5-peptide or scrambled control peptide. Tumor volume was measured using calipers. At the end of the 14-day treatment, the mice were euthanized and tumor tissues were collected (Sentelle et al, 2007; Saddoughi et al, 2013)."}, "Drp1 [10]": {"biological_target": "T1, Drp1 (Homo sapiens, UniProt O00429)", "T1 construct": "Western blotting using whole cell (UM-SCC-22A) lysates versus mitochondria-enriched fractions; endogenous in cells; host or cells: UM-SCC-22A", "T1 sequence (O00429 whole entry)": "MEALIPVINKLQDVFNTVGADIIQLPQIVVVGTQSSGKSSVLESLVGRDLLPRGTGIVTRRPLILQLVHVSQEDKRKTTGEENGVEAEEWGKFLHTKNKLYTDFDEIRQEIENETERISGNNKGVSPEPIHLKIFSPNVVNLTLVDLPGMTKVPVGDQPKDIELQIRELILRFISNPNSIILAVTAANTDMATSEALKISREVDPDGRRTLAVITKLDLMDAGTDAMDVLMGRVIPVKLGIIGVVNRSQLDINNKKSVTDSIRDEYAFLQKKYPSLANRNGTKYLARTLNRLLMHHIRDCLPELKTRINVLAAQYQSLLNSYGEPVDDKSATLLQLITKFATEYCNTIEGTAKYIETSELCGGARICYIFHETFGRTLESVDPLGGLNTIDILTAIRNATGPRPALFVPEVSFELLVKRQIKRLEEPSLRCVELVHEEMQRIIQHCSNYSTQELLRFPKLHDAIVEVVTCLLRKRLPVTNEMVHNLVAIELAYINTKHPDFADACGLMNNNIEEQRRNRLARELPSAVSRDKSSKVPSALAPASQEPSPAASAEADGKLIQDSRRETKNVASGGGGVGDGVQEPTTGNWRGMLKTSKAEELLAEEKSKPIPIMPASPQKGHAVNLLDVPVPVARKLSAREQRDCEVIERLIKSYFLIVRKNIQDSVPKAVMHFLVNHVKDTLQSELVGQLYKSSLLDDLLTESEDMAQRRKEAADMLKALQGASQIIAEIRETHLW", "assay": "Drp1 recruitment to mitochondria in HPV(−) UM-SCC-22A cells (Western blotting of mitochondria-enriched fractions)", "type": "cell-based", "conditions": "5 uM peptide, 20 uM C18-pyr-cer, 1.5 hours", "description": "(§6) Images were quantified using FIJI.\nas §3\nCell fractionation. Cells were treated with 40 uM cisplatin or vehicle for eight hours, 20 uM C18-pyr-cer or vehicle and/or 5 uM scr-pept or E2F5-pept for 1.5 hours. Mitochondria isolation kit (ThermoFisher Scientific) was used as described by the manufacturer."}, "[11]": {"system": "UM-SCC-22A-derived xenograft tumors", "assay": "HPV(−) UM-SCC-22A-derived xenograft tumor growth in SCID mice", "type": "in vivo", "conditions": "UM-SCC-22A xenografts, 3.76 μg peptide, absence/presence of cisplatin 3.5 mg/kg every 3 days for 2 weeks", "description": "To determine whether HPV(+) compared to HPV(−) HNSCC cells are more sensitive to stress-mediated growth inhibition in response to chemotherapeutic drugs, it was first established HPV(+) UM-SCC-47- and HPV(−) UM-SCC-22A-derived xenograft tumors in SCID mice. After the xenograft-derived tumors were ˜75-100 mm^3, the mice were treated with cisplatin (3.5 mg/kg) for two weeks, which is below its maximum tolerated doses (van Moorsel et al, 1999). Then, tumor volumes were measured at days 0 and 14 of treatment. […] After tumor growth measurements in the mice were taken, the tumors were surgically removed and the effects of cisplatin on CerS1-6 mRNA were measured by qRT-PCR.\nEight arginine residues (R8) were included on the N-terminus to enhance cell penetration of the E2F5 peptide (Rancher and Ryu, 2015).\nas §5"}, "Drp1-E2F5 complex [12]": {"biological_target": "T2, Drp1-E2F5 complex (Homo sapiens, UniProt O00429)", "T2 construct": "from tissue; host or cells: UM-SCC-22A xenograft tumours grown in SCID mice", "T2 sequence (O00429 whole entry, one chain of several)": "as the sequence (O00429 whole entry) above", "assay": "Drp1-E2F5 association by PLA in tumor tissue sections", "type": "in vivo, mice", "conditions": "peptide plus cisplatin versus Scr-pept with/without cisplatin", "description": "as §6, §1\nIn vivo studies. […] Age- and sex-matched mice were used. […] Tumor volume was measured using calipers."}},
  "data": [
    {"substance": "C18-pyridinium-ceramide [C18-pyr-cer]", "values": [
      {"measurement": "lethal mitophagy in HPV(−) cells", "setting": "UM-SCC-22A cells [1]; 5-10 μM, 24-48 h", "value": "induces lethal mitophagy"},
      {"measurement": "number of mitochondria and autophagosomes by TEM", "setting": "UM-SCC-47 cells [2]; HPV(+) UM-SCC-47 compared to HPV(−) UM-SCC-22A cells", "value": "a decreased number mitochondria and an increased number of autophagosomes"},
      {"measurement": "mitophagy detected by decreased oxygen consumption rate", "setting": "UM-SCC-47 cells [2]; UM-SCC-47 cells, Sea Horse, versus vehicle", "value": "increased mitophagy"},
      {"measurement": "Drp1-E2F5 association by PLA", "setting": "Drp1-E2F5 complex [3]; versus controls", "value": "increased Drp1-E2F5 association"},
      {"measurement": "Drp1-E2F5 association by co-immunoprecipitation", "setting": "Drp1-E2F5 complex [3]; versus vehicle control", "value": "increased association between Drp1 and E2F5"},
      {"measurement": "Drp1 oligomerization and/or activation", "setting": "Drp1 [4]", "value": "Drp1 oligomerization and/or activation was observed"},
      {"measurement": "Drp1-MFF association by PLA", "setting": "Drp1-MFF association", "value": "induced Drp1-MFF association"},
      {"measurement": "recruitment of Drp1 to mitochondria", "setting": "Drp1 [5]", "value": "induced recruitment of Drp1 to mitochondria"},
      {"measurement": "IC50", "setting": "UM-SCC-47 cells [6]; UM-SCC-47 (HPV+) cells, 48 h, read-out: IC50 (concentration that inhibited growth by 50%)", "value": 1.6, "unit": "µM"},
      {"measurement": "sensitivity for drug-induced growth inhibition/cell death, UM-SCC-47 compared to UM-SCC-22A cells", "setting": "UM-SCC-47 cells [6]; cells in culture", "value": "~3", "unit": "fold"},
      {"measurement": "IC50", "setting": "UM-SCC-22A cells [7]", "value": 5, "unit": "µM"}
    ]},
    {"substance": "Biotin-RRRRRRRR-ELDQQKLWLQQSIKNVMDDSINNRFSYVTHED [E2F5-pept]", "values": [
      {"measurement": "C18-pyr-cer-induced mitophagy (colocalization of LTG and MTR)", "setting": "UM-SCC-22A cells [1]; peptide plus C18-pyr-cer", "value": "enhanced C18-pyr-cer-induced mitophagy"},
      {"measurement": "C18-pyr-cer-induced cell death", "setting": "UM-SCC-22A cells [8]; peptide plus C18-pyr-cer, compared to scr-pept", "value": "largely increased"},
      {"measurement": "cisplatin-induced cell death", "setting": "UM-SCC-22A cells [8]; peptide plus cisplatin, compared to scr-pept", "value": "largely increased"},
      {"measurement": "peptide-enhanced cell death under shRNA-mediated Drp1 knockdown", "setting": "UM-SCC-22A cells [8]; with/without C18-pyr-cer", "value": "attenuated"},
      {"measurement": "mitophagy in tumors (TEM)", "setting": "[9]", "value": "increased mitophagy"},
      {"measurement": "ceramide-induced Drp1 recruitment to mitochondria", "setting": "Drp1 [10]", "value": "enhanced ceramide-induced Drp1 recruitment to mitochondria"},
      {"measurement": "tumor growth", "setting": "[11]", "value": "almost completely inhibited tumor growth"},
      {"measurement": "co-localization of Drp1 and E2F5 in tumors (PLA)", "setting": "Drp1-E2F5 complex [12]", "value": "increased"}
    ]}
  ]
}
